In article PMC12300743, “Unveiling the Solvent Effect: DMSO Interaction with Human Nerve Growth Factor and Its Implications for Drug Discovery” (Molecules, 2025):

Target: T1, hNGF (Homo sapiens, UniProt P01138)
T1 construct: gene NGF; homodimer; amine-coupled to the GCI chip
Assay: grating-coupled interferometry (Creoptix WAVE-delta, waveRAPID), hNGF immobilised by amine coupling
Format: binding

T1 sequence (P01138 122-239): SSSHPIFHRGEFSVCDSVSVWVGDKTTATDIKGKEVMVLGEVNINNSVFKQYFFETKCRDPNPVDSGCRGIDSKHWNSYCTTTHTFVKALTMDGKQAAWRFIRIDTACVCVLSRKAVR

- Kd: ~2100 µM
Structure (SMILES): C[S+](C)[O-] [DMSO]
